This note sets out measurements from US11498929B2, “Chromenopyrimidine derivatives as phosphatidylinsitol phosphate kinase inhibitors” (Hibercell, Inc., priority 2019, dated 2022).

One assay deals with T1, PIP4K2A (Homo sapiens, UniProt P48426).
T1 construct: GST; made in house; host or cells: E. coli
T1 sequence (P48426 1-406): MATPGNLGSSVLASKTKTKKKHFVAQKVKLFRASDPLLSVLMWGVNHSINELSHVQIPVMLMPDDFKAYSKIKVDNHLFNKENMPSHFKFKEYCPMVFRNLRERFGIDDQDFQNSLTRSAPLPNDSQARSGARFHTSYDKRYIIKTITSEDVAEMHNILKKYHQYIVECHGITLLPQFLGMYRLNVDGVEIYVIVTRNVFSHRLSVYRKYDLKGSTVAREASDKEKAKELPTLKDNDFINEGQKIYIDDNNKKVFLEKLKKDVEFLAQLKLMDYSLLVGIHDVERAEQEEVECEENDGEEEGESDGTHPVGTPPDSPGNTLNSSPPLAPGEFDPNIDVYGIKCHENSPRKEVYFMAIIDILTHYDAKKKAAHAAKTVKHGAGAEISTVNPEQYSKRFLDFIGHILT
In words: Kinase Assay - PIP4K2 A (inhibition of PIP4K2 A kinase assay). The class given is biochemical. The settings on record: compounds listed under IC50 bin headings. As to the method: Dilution series of the compounds were prepared in DMSO at 100 times the final assay concentration (n1=n0/3 in 10 points). The compounds were further diluted to three times the assay concentration in assay buffer (20 mM MOPS pH 7.2, 25 mM magnesium chloride, 0.005% Tween 20). 6 μL of the diluted compounds were added to a 384 well assay plate followed by 9 μL of a mix consisting of 4 nM PIP4K2A (full length protein, SignalChem) and 100 μM PI(5)P diC8 (Tebu-Bio). Enzyme and compounds were pre-incubated at room temperature for 15 minutes.
Then 3 μL of a solution containing 60 μM ATP (Promega) in assay buffer was added to the wells containing compound and enzyme and mixing was performed by pipetting several times. The reaction was incubated at room temperature for 1 h. Then 18 μL of ADP-Glo™ Reagent (Promega) was added to stop the kinase reaction and deplete the unconsumed ATP, mixing was performed by pipetting several times. The plate was incubated at room temperature for 40 minutes before addition of 36 μL of Kinase Detection Reagent (Promega) to convert ADP to ATP and introduce luciferase and luciferin to detect ATP. The reaction was incubated at room temperature for 40 minutes before the luminescence was measured in a in a Victor 3V 1420 multilabel counter (Perkin Elmer).
Percent inhibition of the compounds as compared to dimethyl sulfoxide treated control samples was calculated. Compound concentration versus percent inhibition were fitted to generate IC50 values. […]

In assay [1] the target is T2, PIP4K2 B (GST-tagged PIP4KtypeIIB) (Homo sapiens, UniProt P78356).
T2 construct: GST; made in house; host or cells: E. coli
T2 sequence (P78356 1-416): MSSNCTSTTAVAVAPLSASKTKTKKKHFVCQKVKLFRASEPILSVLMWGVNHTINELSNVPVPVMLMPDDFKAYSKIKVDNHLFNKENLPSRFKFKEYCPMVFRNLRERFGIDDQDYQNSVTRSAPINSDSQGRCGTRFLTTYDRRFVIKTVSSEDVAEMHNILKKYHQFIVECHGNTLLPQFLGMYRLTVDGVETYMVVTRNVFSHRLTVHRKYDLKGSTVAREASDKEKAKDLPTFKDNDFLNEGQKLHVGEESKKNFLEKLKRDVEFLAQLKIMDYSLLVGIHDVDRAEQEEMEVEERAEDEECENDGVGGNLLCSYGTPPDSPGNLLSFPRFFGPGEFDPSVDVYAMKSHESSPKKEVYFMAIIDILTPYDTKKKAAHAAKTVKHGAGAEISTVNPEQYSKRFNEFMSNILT
Description: Kinase Assay - PIP4K2 B (inhibition of PIP4K2 B kinase assay). The settings on record: compounds listed under IC50 bin headings. The class given is biochemical. The source says:
GST tagged PIP4KtypeIIA and B enzymes were overexpressed in E. Coli and purified to >80% homogeneity. Phosphatidyl inositol-5-phosphate (PI5P, Cat. #850152, Avanti Polar Lipids Inc.) was used as the lipid substrate and phosphatidyl ethanolamine (DOPE 18:1, Cat. #850725, Avanti Polar Lipids Inc.) was used as the carrier lipid for assays. Ultrapure ATP and GTP was purchased from Bellbrooke Labs. ADP Glo reagents were obtained from Promega. Transcreener FI reagent was obtained from Bellbrooke labs.
GST-tagged PIP4KtypeIIB (3.4 uL, 2.77 mg/mL) was diluted to 5 mL using HNE buffer to yield 5× enzyme stock (25 nM)
Lipid Preparation: In a 10 mL pyrex glass vial, 1 ug of PI5P and 1 ug of DOPE were suspended in 2.5 mL of HEPES buffer mix and 2.5 mL of H:E buffer. The contents were mixed and sonicated for 3 min to yield a translucent lipid stock.
Compound Preparation: Compounds were stored as 5 mM stocks in neat DMSO as room temperature in glass vials. 5 mM stocks were diluted to 2 mM and then serially diluted (3×) in neat DMSO in 96 well polypropylene plates. From the serially diluted stocks, 3 uL was delivered into 250 uL of 25% DMSO (in water) to generate 5× compound stocks. Typically, the highest compound conc. was 24 uM.
The assay volume was kept at 25 uL. To each well of the reaction plate, 10 uL of lipid stock (1:1 ratio PI5P:DOPE) was delivered. This was followed by the addition of 5 uL of compound in 25% DMSO. Then, to each well, 5 uL of 25 nM (5×) typeIIB enzyme was delivered. The contents were mixed well and incubated for 1 h at 27 C. After 1 h, reaction was initiated by adding 5 uL of 500 uM GTP and the contents were mixed well with a multi-channel pipetteman. The final concentration of the reagents are as follows: 50 mM HEPES, pH 7.3, 10 mM MgCl2, 20 mM NaCl, 0.01% v/v triton-X100, 5% DMSO, 100 uM GTP, 80 uM (2 ug) PI5P, 2 ug DOPE, and 5 nM PIP4KIIB Typically, the highest conc. of compounds was 4.8 uM and the lowest conc. was 0.
After 2 h, the reaction was quenched by adding 25 uL of transcreener FI reagent. The contents were incubated at RT for 1 h and the Fluorescence (Ex:584 Em: 623) was read using Molecular Devices Paradigm plate reader. […] The blanks were averaged and subtracted from all other wells. Using a calibration curve, RFU was converted to uM GDP (product). IC50 was calculated by plotting the residual activity (expressed as % No inhibitor control) vs. log [Inh. conc.]

For a further assay, the system named is MOLM-16. In words: MOLM-16 EC50 assay. The settings on record: MOLM16. The class given is cell-based.

`CCN(CC)CCNC(=O)N1CCOc2ncc(Nc3ncc4c(n3)C(C)(C)Oc3cc(N5CCCC5=O)ccc3-4)cc21` [Compound 1, N-[2-(diethylamino)ethyl]-7-{[5,5-dimethyl-8-(2-oxopyrrolidin-1-yl)-5H-chromeno[3,4-d]pyrimidin-3-yl]amino}-1H,2H,3H-pyrido[2,3-b][1,4]oxazine-1-carboxamide]: the IC50 (in general, the concentration at which inhibition is half-maximal) fell in the range of 1 to 10 nM on PIP4K2A and 10 to 100 nM in assay [1]. In the assay on MOLM-16, the EC50 (in general, the concentration giving half of the maximal effect) is 10 to 100 nM.

For the compound `CC1(C)Oc2cc(N3CCCC3=O)ccc2-c2cnc(Nc3cnc4c(c3)N(C(=O)NCCN3CCOCC3)CCO4)nc21` [Compound 2, 7-{[5,5-dimethyl-8-(2-oxopyrrolidin-1-yl)-5H-chromeno[3,4-d]pyrimidin-3-yl]amino}-N-[2-(morpholin-4-yl)ethyl]-1H,2H,3H-pyrido[2,3-b][1,4]oxazine-1-carboxamide], the IC50 (against PIP4K2A; in assay [1]) was 1 to 10 nM each time. The EC50 with MOLM-16 lay in the range of 10 to 100 nM.

Regarding `C[C@@H]1CCC(=O)N1c1ccc2c(c1)OC(C)(C)c1nc(Nc3cnc4c(c3)N(C(=O)CN(C)C)CCO4)ncc1-2` [Compound 3, (5R)-1-[3-({1-[2-(dimethylamino)acetyl]-1H,2H,3H-pyrido[2,3-b][1,4]oxazin-7-yl}amino)-5,5-dimethyl-5H-chromeno[3,4-d]pyrimidin-8-yl]-5-methylpyrrolidin-2-one], the concentration for half-maximal inhibition (IC50) (against PIP4K2A; in assay [1]) was 1 to 10 nM each time. In addition, the concentration giving a half-maximal response (EC50) in the assay on MOLM-16 lay within 10 to 100 nM.

For `CCN1CCN(Cc2cncc(Nc3ncc4c(n3)C(C)(C)Oc3cc(N5CCCC5=O)ccc3-4)c2)CC1` [Compound 4, 1-[3-({5-[(4-ethylpiperazin-1-yl)methyl]pyridin-3-yl}amino)-5,5-dimethyl-5H-chromeno[3,4-d]pyrimidin-8-yl]pyrrolidin-2-one], the IC50 against PIP4K2A lay in the range of 10 to 100 nM; in assay [1], 100 to 1000 nM. The EC50 in the assay on MOLM-16 was 10 to 100 nM.

Consider `Cc1cnnn1-c1ccc2c(c1)OC(C)(C)c1nc(Nc3cnc4c(c3)N(C(=O)N(C)C)CCO4)ncc1-2` [Compound 5, 7-{[5,5-dimethyl-8-(5-methyl-1H-1,2,3-triazol-1-yl)-5H-chromeno[3,4-d]pyrimidin-3-yl]amino}-N,N-dimethyl-1H,2H,3H-pyrido[2,3-b][1,4]oxazine-1-carboxamide], for which the 50% inhibitory concentration (IC50) against PIP4K2A is not above 1 nM; in assay [1] it was 1 to 10 nM. The EC50 in the assay with MOLM-16 lay within 100 to 1000 nM.

In the case of `Cc1cnnn1-c1ccc2c(c1)OC(C)(C)c1nc(Nc3cncc(N4CCN(CCO)CC4)c3)ncc1-2` [Compound 6, 2-[4-(5-{[5,5-dimethyl-8-(5-methyl-1H-1,2,3-triazol-1-yl)-5H-chromeno[3,4-d]pyrimidin-3-yl]amino}pyridin-3-yl)piperazin-1-yl]ethan-1-ol], the values for the half-maximal inhibitory concentration (IC50) (at PIP4K2A; in assay [1]) were not above 1 nM and 1 to 10 nM, respectively. Further, in the assay with MOLM-16, the EC50 fell in the range of 100 to 1000 nM.

As for `CNC(=O)N1CCOc2ncc(Nc3ncc4c(n3)C(C)(C)Oc3cc(N5C(=O)CC[C@H]5C)ccc3-4)cc21` [Compound 18, 7-({5,5-dimethyl-8-[(2R)-2-methyl-5-oxopyrrolidin-1-yl]-5H-chromeno[3,4-d]pyrimidin-3-yl}amino)-N-methyl-1H,2H,3H-pyrido[2,3-b][1,4]oxazine-1-carboxamide], the IC50 at PIP4K2A was not above 1 nM; in assay [1] it was 1 to 10 nM.

For `C[C@@H]1CCC(=O)N1c1ccc2c(c1)OC(C)(C)c1nc(Nc3cnc4c(c3)N(C(=O)NC3CC3)CCO4)ncc1-2` [Compound 20, N-cyclopropyl-7-({5,5-dimethyl-8-[(2R)-2-methyl-5-oxopyrrolidin-1-yl]-5H-chromeno[3,4-d]pyrimidin-3-yl}amino)-1H,2H,3H-pyrido[2,3-b][1,4]oxazine-1-carboxamide], the IC50 (against PIP4K2A; in assay [1]) was 1 to 10 nM in each case.

Consider `CCN(CC)CCOC(=O)N1CCOc2ncc(Nc3ncc4c(n3)C(C)(C)Oc3cc(N5CCCC5=O)ccc3-4)cc21` [Compound 21, 2-(diethylamino)ethyl 7-{[5,5-dimethyl-8-(2-oxopyrrolidin-1-yl)-5H-chromeno[3,4-d]pyrimidin-3-yl]amino}-1H,2H,3H-pyrido[2,3-b][1,4]oxazine-1-carboxylate], for which the concentration for half-maximal inhibition (IC50) fell in the range of 1 to 10 nM at PIP4K2A and 10 to 100 nM in assay [1].

Compound `CC1(C)Oc2cc(N3C(=O)CCC34CC4)ccc2-c2cnc(Nc3cccnc3)nc21` [Compound 24, 4-{5,5-dimethyl-3-[(pyridin-3-yl)amino]-5H-chromeno[3,4-d]pyrimidin-8-yl}-4-azaspiro[2.4]heptan-5-one] came in with an IC50 on PIP4K2A of 1 to 10 nM. Besides, the EC50 in the assay on MOLM-16 fell in the range of 100 to 1000 nM.

Take `CCN(CC)CCN(C)c1cncc(Nc2ncc3c(n2)C(C)(C)Oc2cc(-n4nncc4C)ccc2-3)c1` [Compound 27, N3-[2-(diethylamino)ethyl]-N5-[5,5-dimethyl-8-(5-methyl-1H-1,2,3-triazol-1-yl)-5H-chromeno[3,4-d]pyrimidin-3-yl]-N3-methylpyridine-3,5-diamine]: the IC50 against PIP4K2A fell in the range of 1 to 10 nM. The compound further registered an EC50 with MOLM-16 of 100 to 1000 nM.

As to `CC1(C)Oc2cc(N3CCCC3=O)ccc2-c2cnc(Nc3cncc(CN4CC(F)C4)c3)nc21` [Compound 28, 1-[3-({5-[(3-fluoroazetidin-1-yl)methyl]pyridin-3-yl}amino)-5,5-dimethyl-5H-chromeno[3,4-d]pyrimidin-8-yl]pyrrolidin-2-one], the half-inhibitory concentration (IC50) against PIP4K2A lay within 1 to 10 nM; in assay [1], 100 to 1000 nM.

On to `CC1(C)Oc2cc(N3CCCC3=O)ccc2-c2cnc(Nc3cncc(OCCN4CC(F)C4)c3)nc21` [Compound 30, 1-[3-({5-[2-(3-fluoroazetidin-1-yl)ethoxy]pyridin-3-yl}amino)-5,5-dimethyl-5H-chromeno[3,4-d]pyrimidin-8-yl]pyrrolidin-2-one], for which the IC50 against PIP4K2A was in the range of 10 to 100 nM; in assay [1], 100 to 1000 nM.

`CNCCOc1cncc(Nc2ncc3c(n2)C(C)(C)Oc2cc(N4CCCC4=O)ccc2-3)c1` [Compound 34, 1-[5,5-dimethyl-3-({5-[2-(methylamino)ethoxy]pyridin-3-yl}amino)-5H-chromeno[3,4-d]pyrimidin-8-yl]pyrrolidin-2-one] had an IC50 against PIP4K2A of 10 to 100 nM. Also, in the assay on MOLM-16, the EC50 is 10 to 100 nM.
